This test deals with T1, hGLUT5 (Homo sapiens, UniProt P22732).
T1 construct: expressed in transfected cells; host or cells: HEK293 (HEK293-FLIP); native hGLUT1 not knocked down in this line
T1 sequence (P22732 1-501): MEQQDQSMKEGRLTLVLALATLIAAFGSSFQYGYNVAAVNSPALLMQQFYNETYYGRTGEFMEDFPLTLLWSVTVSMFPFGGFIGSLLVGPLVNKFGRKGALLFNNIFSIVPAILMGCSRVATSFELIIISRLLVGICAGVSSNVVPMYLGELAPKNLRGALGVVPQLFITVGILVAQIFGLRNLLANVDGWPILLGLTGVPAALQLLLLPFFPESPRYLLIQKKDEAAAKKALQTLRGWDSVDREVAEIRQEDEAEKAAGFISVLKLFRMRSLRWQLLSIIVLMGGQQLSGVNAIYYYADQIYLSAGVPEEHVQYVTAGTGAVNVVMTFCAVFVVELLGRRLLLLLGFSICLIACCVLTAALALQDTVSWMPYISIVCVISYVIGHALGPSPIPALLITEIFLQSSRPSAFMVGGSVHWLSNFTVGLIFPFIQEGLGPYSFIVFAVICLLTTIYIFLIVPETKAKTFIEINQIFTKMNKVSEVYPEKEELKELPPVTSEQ
Put plainly: [3H]-D-fructose uptake by HEK293 cells overexpressing GLUT5. Format: cell-based. The source says: Generation of HEK293 cells overexpressing PfHT and human GLUTs 1–4 were described elsewhere. Briefly, HEK293 cells were transfected with pcDNA3.1 FLII12Pglu-7006 (Addgene), containing the fluorescence resonance energy transfer (FRET) glucose sensor (HEK293-FLIP) and PfHT, human GLUT1 (hGLUT1), hGLUT2, hGLUT3, hGLUT4, hGLUT5 or hGLUT8 using Optifect (Life Technologies) according to manufacturer’s specifications. To increase retention of GLUT8 at the plasma membrane, the dileucine sorting signal E^7E^8XXXLL was modified to R^7R^8XXXLL as described in [17]. Stable transfectants were selected for G418 and hygromycin resistance to select for FRET sensor and hexose transporter, respectively. HEK293-FLIP cells were also used to generate cells stably transfected with FLAG-tagged PfHT (FTPfHT). FLAG tag ([…]) followed by a triple glycine linker and a tobacco etch virus (TEV) protease site (ENLYFQS) followed by a triple glycine linker was added to the N-terminus of PfHT via PCR [18] using Phusion Hot Start II High-Fidelity DNA Polymerase (Fisher Scientific). Single clones were selected by comparing their abilities to transport glucose as assayed via FRET and radiolabeled hexose uptake. In all cell lines, except for HEK293 cells overexpressing hGLUT1 and hGLUT5, native hGLUT1 was knocked down using shRNA as described elsewhere. Transcript levels of the individual GLUTs expressed in each cell line are as described in [13, 15] and in S1 Fig.
Glucose uptake by P. falciparum was performed essentially as described. P. falciparum strain 3D7 was cultured in 100 mm tissue culture dishes (Techno Plastic Products) in a 2% suspension of human erythrocytes and RPMI 1640 medium until reaching > 7.5% parasitemia. Cells were pelleted via centrifugation and resuspended in RPMI 1640 medium. To determine the uptake of radiolabeled glucose into the parasite, parasites were isolated from infected erythrocytes by permeablization with saponin (0.05 w/v), followed by centrifugation, aspiration of supernatant and washing of the pellet 3X with saline solution (135 mM NaCl, 2 mM KCl, 25 mM HEPES, 0.2 mM glucose and 1 mM MgCl2; pH 7.1) to remove cellular debris. WU-1 or DMSO vehicle were added to 100 μl parasites (resuspended in saline) 5 min prior to the addition of 100 μl [^14C]2-DOG (0.2- μCi/ml final concentration). 2-DG uptake was stopped after 2 min by layering the entire reaction over 300 μl of an oil mixture (5:4 mix of dibutyl phthalate / dinonyl phthalate) in Eppendorf tubes and centrifuged at 15,850 × g for 2 mins. The ratio of the estimated intracellular concentration of radiolabel relative to the extracellular concentration were calculated as described. Uptake of radiolabeled hexose into HEK293 cells was measured in glucose-free HBSS as described previously. Briefly, cells were plated at 400,000 cells/well overnight at 37°C in 24-well plates pre-treated with PEI. After 30-min incubation at 37°C in glucose-free HBSS in the presence of vehicle or increasing concentrations of compound, 2-DG uptake was measured in glucose-free HBSS for 4 min at 37°C. Cultures were washed in ice-cold 1X PBS and lysed in 0.1% Triton X-100 in 1X PBS. Radiolabeled hexose uptake was determined by liquid scintillation counting (Ultima Gold, Thermo Fisher) and normalized to total protein per well. Uptake data are plotted as percent uptake relative to vehicle-treated cells. Kinetic analyses were performed using the indicated concentrations of substrate and WU-1, with quenching of uptake after 1 min incubation. Incubation times had been previously determined as being in the linear range of time-dependent radiolabeled hexose uptake (2 min for 2-DG uptake into freed parasites; 2 and 4 min for D-Frc and 2-DG uptake HEK cell lines, respectively). Data were fit by least squares nonlinear regression analysis using GraphPad Prism 6.0 software.

On to `Cc1ccc(S(=O)(=O)CCNC(=O)c2c(-c3c(Cl)cccc3Cl)noc2C)cc1` [WU-1, 3-(2,6-dichlorophenyl)-5-methyl-N-[2-(4-methylbenzenesulfonyl)ethyl]-1,2-oxazole-4-carboxamide], for which the “IC50 (µM)” value (GLUT5, D-frc Uptake) is recorded as “ambiguous”. Also, for the setting “GLUT5 cell line”, the “IC50, D-fructose (Frc) uptake” value is reported as “n.i”. Further, the remaining activity at 0.001 µM (HEK293, 2 min, GLUT5, concentration 0.001 µM, read-out: D-frc Uptake AVE) was 100%. For the same compound, under “HEK293, 2 min, GLUT5, concentration 0.3125 µM, read-out: D-frc Uptake AVE”, the remaining activity at 0.3125 µM is 78.1%. In addition, under “HEK293, 2 min, GLUT5, concentration 0.6250 µM, read-out: D-frc Uptake AVE”, the remaining activity at 0.625 µM is 82.9%. Besides, the remaining activity at 1.25 µM (HEK293, 2 min, GLUT5, concentration 1.2500 µM, read-out: D-frc Uptake AVE) turned out to be 96.7%. Moreover, the remaining activity at 2.5 µM (HEK293, 2 min, GLUT5, concentration 2.5000 µM, read-out: D-frc Uptake AVE) is 102%. Also, the remaining activity at 5 µM (HEK293, 2 min, GLUT5, concentration 5 µM, read-out: D-frc Uptake AVE) is 89.8%. The remaining activity at 10 µM (HEK293, 2 min, GLUT5, concentration 10 µM, read-out: D-frc Uptake AVE) worked out at 87.6%. Also, the remaining activity at 20 µM (HEK293, 2 min, GLUT5, concentration 20 µM, read-out: D-frc Uptake AVE) is 103%. The remaining activity at 40 µM (HEK293, 2 min, GLUT5, concentration 40 µM, read-out: D-frc Uptake AVE) was determined as 108%. Moreover, the remaining activity at 80 µM (HEK293, 2 min, GLUT5, concentration 80 µM, read-out: D-frc Uptake AVE) was 110%. Also, the remaining activity at 160 µM (HEK293, 2 min, GLUT5, concentration 160 µM, read-out: D-frc Uptake AVE) was 111%. The remaining activity at 225 µM (HEK293, 2 min, GLUT5, concentration 225 µM, read-out: D-frc Uptake AVE) came out at 125%. The “Selectivity Index (PfHT over GLUT5), Frc” value (calculated from IC50s) was “n.i”.

The values are drawn from paper PMC6508677, “Identification of druggable small molecule antagonists of the Plasmodium falciparum hexose transporter PfHT and assessment of ligand access to the glucose permeation pathway via FLAG-mediated protein engineering” (PLoS ONE, 2019).
